Reference: patent publication US20190091272A1, “ANTI-CANCER DRUG COMPOSITION INCLUDING GANODERMA EXTRACT AND AMPHOTERICIN B” (Taiwan Indigena Botanica Co., Ltd., priority 2015, published 2019)

Tested on: human liver carcinoma cell lines including Hep G2, Hep 3G and Hep 5J
Test: Summary of Examples 1 and 2 over the three liver carcinoma cell lines
Type: cell-based
Experimental: This example used human liver carcinoma cell lines including Hep G2, Hep 3G and Hep 5J for experiments, and the cells were cultured in 96-well plates. The experiments were divided into two groups including a pre-treatment group and a co-treatment group. The cells in the pre-treatment group were pre-treated with the Ganoderma ethanolic extracts for 24 hours and then treated with the amphotericin B for 48 hours, while the cells in the co-treatment group were co-treated with the Ganoderma ethanolic extracts and the amphotericin B together for 48 hours.
In the pre-treatment group, the cells were pre-treated with the Ganoderma ethanolic extracts at concentrations of 0, 1, 2.5 and 5 mg/ml for 24 hours, and then treated with the amphotericin B at concentrations between 0-80 μM for 48 hours, followed by MTT assay. In the co-treatment group, the cells were co-treated with the Ganoderma ethanolic extracts at concentrations of 0, 1, 2.5 and 5 mg/ml and the amphotericin B at concentrations between 0-80 μM for 48 hours, followed by MTT assay. The MTT solution (3-(4,5-Dimethylthiazol-2-yl)-2,5-diphenyltetrazolium bromide) was added to each well, and the plates were further incubated for 45-60 minutes. The cell culture medium was then removed and replaced by DMSO (dimethyl sulfoxide). Subsequently, the optical density (OD) was measured at 550 nm. […]

## C[C@@H]1[C@H](O)[C@@H](C)/C=C/C=C/C=C/C=C/C=C/C=C/C=C/[C@H](O[C@@H]2O[C@H](C)[C@@H](O)[C@H](N)[C@@H]2O)C[C@@H]2O[C@](O)(C[C@@H](O)C[C@@H](O)[C@H](O)CC[C@@H](O)C[C@@H](O)CC(=O)O[C@H]1C)C[C@H](O)[C@H]2C(=O)O [amphotericin B]
After pre-treatment with the Ganoderma ethanolic extract, from the examples
  effective dose of the amphotericin B: at least 3 μM
Based on the results from Examples 1 and 2
  safe and effective dose of the amphotericin B: 3 to 10 µM
